In patent publication US5637619A, “Antitumor 2-aminocarbonyl-1, 2-bis(methylsulfonyl)-1-(substituted)hydrazines” (Yale University, priority 1995, dated 1997):
Read-outs that look alike come from different tables or passages of the source.

Legend:
[1] = test system: glutathione S-transferase mu isoenzymes; details: rat isoenzymes; cited from earlier work
[2] = test system: M5076 reticulum cell sarcoma; test: M5076 reticulum cell sarcoma, sc implanted; format: in vivo, C57BL/6 mice; details: iv every fourth day × 3 (same treatment schedule as MeCCNU)
Experimental: (§1) The M5076 reticulum cell sarcoma was passaged biweekly by sc transfer of tumor fragments into C57BL/6 mice, and the M109 lung carcinoma was similarly passaged in BALB/c mice. The LX-1 human lung carcinoma was passaged sc every two to three weeks in BALB/c-background athymic (nu/nu) mice. For use in these systems, compound III was dissolved in: (a) 100% DMSO and administered by iv injection in a fixed volume of 10 microliters; or (b) DMSO diluted with saline to a final concentration of 10% DMSO and administered iv in a volume of 0.01 milliliter/g of body weight. […] Mitomycin C and cyclophosphamide were dissolved and administered in saline. BCNU and MeCCNU were dissolved in ethanol and diluted 1:9 (v/v) with water prior to administration.
(§2) Five mice per group were employed in experiments with the B16F10 melanoma, and 8 mice per group with the M5076 sarcoma, the M109 carcinoma and the LX-1 carcinoma. A minimum of two dose levels per compound were included in each evaluation and drug therapy was initiated 24 h after tumor implantation for the M5076 sarcoma and M109 carcinoma. In the LX-1 experiment, tumor bearing mice were selected and sorted into treatment and control groups on day 6 post-tumor implant such that all tumor weights ranged from 50-100 mg and median tumor weights per group were reasonably similar. Therapeutic results are presented in terms of: (a) increases in lifespan reflected by the relative median survival time (MST) of treated versus control groups (i.e., %T/C values), and by long-term survivors, and (b) primary tumor growth inhibition (i.e., T-C values) determined by calculating the relative median times for treated (T) and control untreated (C) mice to grow tumors of a 0.5 g size for the LX-1 carcinoma or a 1 g size for the murine neoplasms. Tumor weights were interchangeable with tumor size on the basis of 1 mm^3 =1 mg. […] The activity criterion for tumor inhibition was a delay in tumor growth consistent with one log10 cell kill (LCK). The absolute T-C value needed to attain this level of efficacy varied from experiment to experiment and depended upon the tumor volume doubling time of the control mice in each study. Treated mice dying prior to day 10 in the ip M109 experiment, or dying before their tumors achieved 0.5 g for the LX-1 carcinoma or 1 g in size for all other sc tumor models, were considered to have died from drug toxicity. Groups of mice with more than one death due to drug toxicity were not used in the evaluation of antitumor efficacy. Statistical evaluations of data were performed using Gehan's generalized Wilcoxan test (Gehan, Biometrika, 1965, 52, 203-233).
Compound III was also evaluated against the M5076 reticulum cell sarcoma implanted sc. When administered iv at a level of 48 mg/kg per injection in 100% DMSO every other day for five days, compound III cured 6 out of 8 mice and consequently, no median time (T-C value) to reach 1 gram size tumors was expressed for this group. Tumor growth in mice receiving only 100% DMSO was indistinguishable from that of untreated control animals. 1-(2-Chloroethyl)-3-(4-methylcyclohexyl)-1-nitrosourea (MeCCNU) and BCNU were included in this experiment for comparison. The former achieved a maximum %T/C of 128 and a delay in tumor growth of 33.5 days at 16 mg/kg per injection administered iv every fourth day for three total injections, while BCNU, administered iv on the same treatment schedule, produced a %T/C in excess of 157, with 2 out of 8 cures, and a T-C of >62 days (data not shown).

glutathione reductase = details: cited from earlier work
[3] = test system: glutathione S-transferase mu isoenzymes; details: human isoenzymes; cited from earlier work
[4] = test system: LX-1 human lung carcinoma; test: LX-1 human lung carcinoma xenograft, sc in athymic mice; format: in vivo, human tumor in athymic (nu/nu) mice; details: 20 mg/kg per injection (optimum), iv every fourth day × 3
Experimental: as §1, §2
The human lung tumor, LX-1, xenografted sc in athymic mice, was also used to examine the antineoplastic potential of compound III. […]

thioredoxin reductase = details: cited from earlier work
liver microsomal enzymes = details: NADPH-dependent; cited from earlier work
ribonucleotide reductase = details: cited from earlier work
[5] = test system: NADPH:cytochrome P450 reductase; details: cited from earlier work
[6] = test system: mammary MX-1 human tumor xenografts; details: subrenal capsule, athymic mice; cited from earlier work
[7] = test system: colon CX-1 human tumor xenografts; details: subrenal capsule, athymic mice; cited from earlier work
B16F10 melanoma = test: B16F10 melanoma, tumor growth delay in mice; format: in vivo, C57BL/6 mice; details: 100% DMSO
Experimental: B16F10 melanoma cells were grown in vitro as monolayers in minimum essential medium with Hank's salts supplemented with 10% fetal bovine serum and 1% 200 mM L-glutamine solution. Solid tumors were produced in C57BL/6 female mice 12- to 14-weeks of age by the intradermal injection in the right flank of each mouse of 0.1 mL of a cell suspension containing 10^6 B16F10 cells/mL from freshly trypsinized cultures. After 10-12 days, animals bearing approximately 100 mm^3 tumors were treated ip with compound III or IV dissolved in 100% DMSO for 6 consecutive days, and tumor volumes were measured on alternate days until reaching 1000 mm^3.
as §2
In addition, both compounds III and IV were evaluated in 100% DMSO against the B16F10 melanoma implanted intradermally (id) in mice (Table III). In an initial experiment, compound IV produced a T-C of 15.5 days at a daily dosage level of 20 mg/kg administered once daily for six consecutive days beginning on day 10 post-implant. In the same experiment, using the same treatment schedule, a growth delay of 11 days was obtained with compound III. […] Thus, the aminocarbonyl component in this class of agents influences the magnitude of the antitumor effects obtained against the B16F10 melanoma.

[8] = Body weight change / toxicity in L1210-bearing mice; format: in vivo, mice (CD2F1); details: for Av. Wt. Change %: L1210-bearing mice
Experimental: (§3) Leukemia L1210 cells were obtained from the Frederick Cancer Research Facility, Division of Cancer Treatment Tumor Repository of the National Cancer Institute, and were maintained by serial passage in tissue culture. Every 8 weeks, tumor cells were injected intraperitoneally into five donor CD2 F1 mice 8- to 10- weeks of age and were allowed to grow for 7 days. The peritoneal fluid was withdrawn and the suspension was centrifuged for 5 min at 1600 g. The supernatant was decanted and 10^5 cells/mL were seeded into 10 mL of RPMI 1640 medium supplemented with 10% fetal bovine serum and 1% L-glutamine, and once again maintained in culture. To assay for antineoplastic activity, 0.1 mL of the cell suspension containing 10^5 L1210 leukemia cells was injected ip into each recipient mouse. Test compounds were administered over a wide range of dosage levels, beginning 24 h after tumor implantation, and continued once daily for 6 consecutive days. All drugs were administered ip as a solution in 100% dimethylsulfoxide (DMSO), in a volume not exceeding 0.025 mL. […] Mice were weighed during the course of the experiments, and the percentage change in body weight from onset to termination of therapy was used as an indication of drug toxicity. Determination of the sensitivity of neoplasms to these agents was based upon the prolongation of survival time afforded by the drug treatments.
(§4) ^a Administered ip once daily for six consecutive days, beginning 24 hours after tumor implantation, with 5-10 mice being used per group. ^b Average percent change in body weight from onset to termination of therapy. ^c % T/C=average survival time of treated/control mice×100; cures (>60-day survivors) are listed separately and are not included in this calculation.

L1210 leukemia = L1210 leukemia survival time in mice (ip implanted); format: in vivo, mice (CD2F1)
Experimental: as §3, §4

M109 lung carcinoma [9] = details: as reported earlier (J. Med. Chem. 1993, 36, 3496); cited from earlier work
M109 lung carcinoma [10] = details: 60 mg/kg per injection, highest dosage level, ip q4d × 3; different experiment; cited from earlier work
[11] = test system: M5076 reticulum cell sarcoma; details: compared with compound III or BCNU; cited from earlier work
[12] = chloroethylating agent with no carbamoylating activity; cited from earlier work

O=NN(CCCl)C(=O)NCCCl [BCNU, 1,3-bis(2-chloroethyl)-1-nitrosourea]
glutathione-dependent denitrosation (in words) [1]: undergo glutathione-dependent denitrosation
%T/C [2]: > 157%
T-C [2]: > 62 days
cures [2]: 2 out of 8
inhibition of glutathione reductase (in words) (glutathione reductase): inhibit glutathione reductase
glutathione-dependent denitrosation (in words) [3]: undergo glutathione-dependent denitrosation
T-C [4]: 11.8 days
log10 cell kill (LCK) [4]: 1.3 LCK
inhibition of thioredoxin reductase (in words) (thioredoxin reductase): inhibit glutathione reductase, ribonucleotide reductase and thioredoxin reductase
inactivation by denitrosation (in words) (liver microsomal enzymes): inactivated by denitrosation by liver microsomal enzymes
inhibition of ribonucleotide reductase (in words) (ribonucleotide reductase): inhibit glutathione reductase, ribonucleotide reductase

O=NN(CCCl)C(=O)NC1CCCCC1 [CCNU, 1-(2-chloroethyl)-3-cyclohexyl-1-nitrosourea]
denitrosation (in words) [5]: catalyzed by NADPH:cytochrome P450 reductase

CNC(=O)ON(C(C)=O)C(=O)NC [Caracemide]
antitumor activity (in words) [6]: active
antitumor activity (in words) [7]: active

CNC(=O)N(N(CCCl)S(C)(=O)=O)S(C)(=O)=O [Compound IV, 1,2-Bis(methylsulfonyl)-1-(2-chloroethyl)-2-methylaminocarbonylhydrazine]
T-C (B16F10 melanoma; experiment a, 10 mg/kg/injection, qd × 6 from day 10, ip): 5.0 days
T-C, growth delay (B16F10 melanoma; experiment a, 20 mg/kg/injection, qd × 6 from day 10, ip): 15.5 days
T-C (B16F10 melanoma; experiment b, 20 mg/kg/injection, qd × 6 from day 12, ip): 10.0 days
T-C, growth delay (B16F10 melanoma; experiment b, 30 mg/kg/injection, qd × 6 from day 12, ip): 25.5 days
Av. Wt. Change % ([8]; 5 mg/kg ip once daily × 6): +9.9%
body weight loss (in words) ([8]; 5 mg/kg × 6): no body weight loss
Av. Wt. Change % ([8]; 10 mg/kg ip once daily × 6): -5.6%
Av. Wt. Change % ([8]; 15 mg/kg ip once daily × 6): -2.1%
loss of body weight ([8]; 10 and 15 mg/kg × 6): < 6%
% 60 Day Survivors (cures) (L1210 leukemia; 5 mg/kg ip once daily × 6): 40%
%T/C (average survival time treated/control × 100) (L1210 leukemia; 5 mg/kg ip once daily × 6, cures not included): 234%
% 60 Day Survivors (cures) (L1210 leukemia; 10 mg/kg ip once daily × 6): 100%
% 60 Day Survivors (cures) (L1210 leukemia; 15 mg/kg ip once daily × 6): 100%
antileukemic activity / therapeutic potential (in words) (L1210 leukemia; qualitative, L1210 leukemia in mice): much better therapeutic potential than the amino acid ester derivatives

CC(=O)N(N(CCCl)S(C)(=O)=O)S(C)(=O)=O [X]
maximum %T/C (M109 lung carcinoma [9]): 136%
maximum T-C value (M109 lung carcinoma [9]): 14.5 days
%T/C (median survival time) (M109 lung carcinoma [10]): 231%
activity against M5076 (in words) [11]: much less active than compound III or BCNU

CS(=O)(=O)CS(=O)(=O)OCCCl [clomesone]
antineoplastic activity (in words) [12]: excellent antineoplastic activity
